According to ChEMBL document CHEMBL3046768, “New antiepileptic agents: structureactivity relationships” (Med Chem Res, 2012):

Assays:
[1] = system: Mus musculus; assay: Anticonvulsant activity in ip dosed Mus musculus (mouse) assessed as inhibition of maximal electroshock-induced seizure; type: functional; details: for ED50: Mus musculus, ip
[2] = system: Mus musculus; assay: Protective index, ratio of TD50 for ip dosed Mus musculus (mouse) to ED50 for ip dosed Mus musculus (mouse) assessed as inhibition of maximal electroshock-induced seizure; type: functional
[3] = Toxicity in ip dosed maximal electroshock-induced seizure Mus musculus (mouse) model; type: organism-based; details: in vivo
[4] = Oral bioavailability in Rattus norvegicus (rat); type: ADME, organism-based; details: in vivo
[5] = system: Rattus norvegicus; assay: Protective index, ratio of TD50 for po dosed Rattus norvegicus (rat) to ED50 for anticonvulsant activity in po dosed rat assessed as inhibition of maximal electroshock-induced seizure; type: functional
[6] = system: Rattus norvegicus; assay: Anticonvulsant activity in po dosed Rattus norvegicus (rat) assessed as inhibition of maximal electroshock-induced seizure after 1 hr; type: functional
[7] = system: Mus musculus; assay: Anticonvulsant activity in ip dosed Mus musculus (mouse) assessed as inhibition of maximal electroshock-induced seizure after 1 hr; type: functional
[8] = system: Rattus norvegicus; assay: Anticonvulsant activity in po dosed Rattus norvegicus (rat) assessed as inhibition of maximal electroshock-induced seizure after 4 hr; type: functional
[9] = target: 5-hydroxytryptamine receptor 2A (Homo sapiens) (UniProt P28223); assay: Agonist activity at Homo sapiens (human) 5-HT2A receptor assessed as 5-HT-induced phosphoinositide hydrolysis by cell based assay; set-up: scale not given: the % may be the effect or the level left
5-hydroxytryptamine receptor 2A (Homo sapiens), sequence (P28223 whole entry): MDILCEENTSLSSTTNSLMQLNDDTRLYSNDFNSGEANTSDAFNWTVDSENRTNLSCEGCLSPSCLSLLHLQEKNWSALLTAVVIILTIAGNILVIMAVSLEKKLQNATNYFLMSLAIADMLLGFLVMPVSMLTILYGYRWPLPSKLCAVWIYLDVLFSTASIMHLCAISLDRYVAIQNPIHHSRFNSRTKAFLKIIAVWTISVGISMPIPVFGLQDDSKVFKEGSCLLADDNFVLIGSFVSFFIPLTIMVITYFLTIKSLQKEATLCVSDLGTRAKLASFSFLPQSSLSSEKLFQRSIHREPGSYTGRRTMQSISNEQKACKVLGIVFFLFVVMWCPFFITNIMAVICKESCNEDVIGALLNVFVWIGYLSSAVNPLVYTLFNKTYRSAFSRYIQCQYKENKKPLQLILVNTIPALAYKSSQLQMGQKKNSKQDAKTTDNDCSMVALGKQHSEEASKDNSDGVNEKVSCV

[10] = system: Mus musculus; assay: Anticonvulsant activity in ip dosed Mus musculus (mouse) assessed as inhibition of subcutaneous pentylene tetrazole-induced seizure; type: functional
[11] = target: T1, 5-hydroxytryptamine receptor 2C (Homo sapiens) (UniProt P28335); assay: (§1) Agonist activity at Homo sapiens (human) 5-HT2C receptor assessed as 5-HT-induced calcium mobilization by cell based assay; type: functional
T1 sequence (whole entry): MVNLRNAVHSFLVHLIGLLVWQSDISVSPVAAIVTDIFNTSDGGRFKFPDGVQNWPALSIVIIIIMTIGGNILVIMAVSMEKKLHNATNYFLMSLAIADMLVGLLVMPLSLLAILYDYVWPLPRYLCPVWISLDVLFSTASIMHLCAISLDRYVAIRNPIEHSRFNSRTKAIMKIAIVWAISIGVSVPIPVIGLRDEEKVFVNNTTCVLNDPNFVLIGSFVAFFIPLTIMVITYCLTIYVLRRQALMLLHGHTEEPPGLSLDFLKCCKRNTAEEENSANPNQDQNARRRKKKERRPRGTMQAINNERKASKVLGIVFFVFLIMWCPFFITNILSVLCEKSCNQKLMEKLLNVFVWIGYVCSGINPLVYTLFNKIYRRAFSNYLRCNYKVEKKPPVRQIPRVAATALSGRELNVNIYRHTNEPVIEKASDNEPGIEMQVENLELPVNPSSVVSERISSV

[12] = system: Rattus norvegicus; assay: Anticonvulsant activity in po dosed Rattus norvegicus (rat) assessed as inhibition of maximal electroshock-induced seizure after 5 hr; type: functional
[13] = target: T2, 5-hydroxytryptamine receptor 2C (Homo sapiens, UniProt P28335); assay: Agonist activity at Homo sapiens (human) 5-HT2C receptor assessed as calcium mobilization by cell based assay; type: functional
T2 sequence (P28335 whole entry): T1 sequence (whole entry)

[14] = species: Mus musculus; assay: Anticonvulsant activity in Mus musculus (mouse) assessed as inhibition of maximal electroshock-induced seizure; type: functional
[15] = species: Rattus norvegicus; assay: Anticonvulsant activity in Rattus norvegicus (rat) assessed as inhibition of maximal electroshock-induced seizure; type: functional
[16] = Toxicity in po dosed maximal electroshock-induced seizure Rattus norvegicus (rat) model; type: organism-based; details: in vivo
[17] = species: Mus musculus; assay: Protective index, ratio of TD50 for Mus musculus (mouse) to […] for Mus musculus (mouse) assessed as inhibition of maximal electroshock-induced seizure; type: functional
[18] = target: T2, 5-hydroxytryptamine receptor 2C; assay: Agonist activity at Homo sapiens (human) 5-HT2C receptor
[19] = system: Rattus norvegicus; assay: Anticonvulsant activity in ip dosed Rattus norvegicus (rat) assessed as inhibition of subcutaneous pentylene tetrazole-induced seizure; type: functional
[20] = system: Rattus norvegicus; assay: Anticonvulsant activity in ip dosed Rattus norvegicus (rat) assessed as inhibition of maximal electroshock-induced seizure; type: functional
[21] = system: Rattus norvegicus; assay: Protective index, ratio of TD50 for ip dosed Rattus norvegicus (rat) to ED50 for ip dosed rat assessed as inhibition of maximal electroshock-induced seizure; type: functional
[22] = target: T2, 5-hydroxytryptamine receptor 2C; assay: as §1; type: functional
[23] = system: Mus musculus; assay: Anticonvulsant activity in ip dosed Mus musculus (mouse) assessed as inhibition of subcutaneous metrazol-induced seizure; type: functional
[24] = system: Rattus norvegicus; assay: Anticonvulsant activity in po dosed Rattus norvegicus (rat) assessed as inhibition of maximal electroshock-induced seizure after 0.5 hr; type: functional
[25] = system: Mus musculus; assay: Anticonvulsant activity in ip dosed Mus musculus (mouse) assessed as inhibition of maximal electroshock-induced seizure after 0.25 hr; type: functional

Question: With `COC(=O)C1C(=O)C=C(Nc2cc(C)on2)CC1C` (stereo not drawn) as the compound, how does the ED50 [1] read?
Answer: Its ED50 is 68.9 mg/kg.

Question: And the “Ratio TD50/ED50” value [2]?
Answer: Its value is >7.3.

Question: What about the TD50 [3] of the same compound?
Answer: Its TD50 is > 500 mg/kg.

Question: With `C[C@H]1CN(c2ccc(C(F)(F)F)c3ccoc23)CCN1` as the compound, how does the bioavailability [4] read?
Answer: The bioavailability was 83%.

Question: For `CC(=O)NC(C)C(=O)NCc1ccccc1` (stereo not drawn), which “Ratio TD50/ED50” value [2] is on record?
Answer: The value was 5.9.

Question: And the “Ratio TD50/ED50” value [5]?
Answer: The value was >20.

Question: And the ED50 [6]?
Answer: The ED50 was 48 mg/kg.

Question: What about the ED50 [7] of the same compound?
Answer: Its ED50 is 77 mg/kg.

Question: Which ED50 [8] does the source give for `O=C1NC(=O)C(c2ccccc2)(c2ccccc2)N1` [PHENYTOIN] here?
Answer: Its ED50 is 30 mg/kg.

Question: With `CCc1cc2c(ccc3cnn(C[C@H](C)N)c32)o1` as the compound, how does the Activity [9] read?
Answer: Its Activity is 97%.

Question: For `CCCC(CCC)C(=O)[O-].[Na+]` [VALPROATE SODIUM], which “inhibition (INH)” value [10] is on record?
Answer: The value was 80%.

Question: With `Cc1noc(C)c1COc1cc(F)c(COC(=O)N2[C@H](C)CNC[C@@H]2C)c(F)c1` as the compound, how does the Activity [11] read?
Answer: The Activity was 91%.

Question: What does the source list for `CCC1(c2ccccc2)C(=O)NC(=O)NC1=O` [PHENOBARBITAL]?
Answer: ED50 [12]: 9.1 mg/kg; ED50 [7]: 22 mg/kg

Question: For `CCNc1nnc(-c2ccccc2O)s1`, which “inhibition (INH)” value [1] is on record?
Answer: The value was 90%.

Question: For `Cc1c2n(c3c(C)c(Cl)ccc13)C(C)NCC2` (stereo not drawn), which EC50 [13] is on record?
Answer: The EC50 was 0.4 nM.

Question: With `Oc1ccccc1-c1nnc(Nc2cccc(F)c2)s1` as the compound, how does the “inhibition (INH)” value [1] read?
Answer: The value was 70%.

Question: For `CC1(C)C(C(=O)NC(N)=O)C1(C)C` [2,2,3,3-TETRAMETHYLCYCLOPROPANECARBONYLUREA], which ED50 [14] is on record?
Answer: The ED50 was 90 mg/kg.

Question: And the ED50 [15]?
Answer: The ED50 was 29 mg/kg.

Question: For `CCOC(=O)C1C(=O)C=C(Nc2cc(C)on2)CC1C` (stereo not drawn), which “Ratio TD50/ED50” value [5] is on record?
Answer: Its value is >49.6.

Question: And the TD50 [16]?
Answer: Its TD50 is > 500 mg/kg.

Question: Which PI [17] does the source give for `O=C1CC2(CCCC2)C(=O)N1OCc1ccccc1` here?
Answer: The PI was >4.5.

Question: With `Clc1ccc(-c2ccc(-c3cc4c5c(c3)[C@@H]3CNC[C@@H]3N5CCCS4)cc2)c(Cl)c1` as the compound, how does the EC50 [18] read?
Answer: Its EC50 is 3 nM.

Question: Which EC50 [18] does the source give for `C1CC2CNCCN3C2C(C1)[C@H]1CCC[C@H]13` (stereo partly drawn) here?
Answer: Its EC50 is 76 nM.

Question: Which ED50 [19] does the source give for `O=C(NCc1ccccc1F)c1ccccn1` [PICOLINIC ACID FLUOROBENZYLAMIDE] here?
Answer: Its ED50 is > 50 mg/kg.

Question: What about the ED50 [20] of the same compound?
Answer: The ED50 was 14.7 mg/kg.

Question: And the “Ratio TD50/ED50” value [21]?
Answer: Its value is <3.4.

Question: Which Activity [11] does the source give for `CCOc1ccc2c(c1)c(C[C@H](C)N)c1n2CCC1` here?
Answer: Its Activity is 87%.

Question: And the EC50 [22]?
Answer: Its EC50 is 4 nM.

Question: With `O=C1NCCCCC1(O)c1ccccc1` (stereo not drawn) as the compound, how does the ED50 [23] read?
Answer: The ED50 was 74 mg/kg.

Question: What about the ED50 [1] of the same compound?
Answer: Its ED50 is 63 mg/kg.

Question: What does the source list for `CC(=O)NN(C(=O)NCc1ccccc1)c1nccs1`?
Answer: Ratio TD50/ED50 [2]: 5.4; Ratio TD50/ED50 [5]: >40; TD50 [16]: > 250 mg/kg; ED50 [24]: 6.2 mg/kg; ED50 [25]: 22 mg/kg

Question: Which “Ratio TD50/ED50” value [5] does the source give for `Cc1cc(NC2=CC(=O)C(C(=O)OC(C)(C)C)C(C)C2)no1` (stereo not drawn) here?
Answer: Its value is >17.8.

Question: And the TD50 [16]?
Answer: Its TD50 is > 500 mg/kg.
